Molecular target: T1, NLRP3 (Homo sapiens, UniProt Q96P20)
T1 construct: purified human GST-NLRP3
Test: microscale thermophoresis with purified GST-NLRP3; also biotin-Eri pull-down and ATPase inhibition
Assay type: binding

T1 sequence (Q96P20 whole entry): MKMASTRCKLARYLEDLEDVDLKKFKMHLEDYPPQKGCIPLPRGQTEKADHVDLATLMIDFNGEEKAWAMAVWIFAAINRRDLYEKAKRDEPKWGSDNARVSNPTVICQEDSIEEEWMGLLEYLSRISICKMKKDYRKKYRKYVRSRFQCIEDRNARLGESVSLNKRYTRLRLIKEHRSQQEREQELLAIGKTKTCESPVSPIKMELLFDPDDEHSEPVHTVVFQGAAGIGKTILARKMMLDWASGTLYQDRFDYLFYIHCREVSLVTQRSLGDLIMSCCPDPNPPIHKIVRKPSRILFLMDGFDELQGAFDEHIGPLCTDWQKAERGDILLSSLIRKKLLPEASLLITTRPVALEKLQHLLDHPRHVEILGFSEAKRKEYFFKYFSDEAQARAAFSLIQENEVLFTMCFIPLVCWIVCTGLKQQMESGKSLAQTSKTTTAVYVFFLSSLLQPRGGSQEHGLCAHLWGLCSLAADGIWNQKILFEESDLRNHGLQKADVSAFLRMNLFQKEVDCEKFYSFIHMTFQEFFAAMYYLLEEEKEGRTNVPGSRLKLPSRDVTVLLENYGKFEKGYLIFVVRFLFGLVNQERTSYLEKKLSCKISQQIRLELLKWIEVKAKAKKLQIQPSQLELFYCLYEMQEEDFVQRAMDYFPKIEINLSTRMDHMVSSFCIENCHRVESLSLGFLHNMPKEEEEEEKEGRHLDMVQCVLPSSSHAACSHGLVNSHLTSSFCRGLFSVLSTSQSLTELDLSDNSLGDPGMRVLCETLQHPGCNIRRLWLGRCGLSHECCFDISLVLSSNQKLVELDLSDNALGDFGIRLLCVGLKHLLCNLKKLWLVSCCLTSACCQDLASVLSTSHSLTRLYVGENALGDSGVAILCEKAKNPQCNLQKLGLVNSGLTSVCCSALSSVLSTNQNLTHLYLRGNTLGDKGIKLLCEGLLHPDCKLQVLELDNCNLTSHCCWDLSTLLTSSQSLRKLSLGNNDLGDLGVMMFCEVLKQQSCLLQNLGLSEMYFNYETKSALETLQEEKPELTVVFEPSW

COc1ccc(CCc2cc(OC)c(OC)c(OC)c2)cc1O [Eri, Erianin]
Kd: ~50 nM

Source: publication PMC8564113, “Erianin: A Direct NLRP3 Inhibitor With Remarkable Anti-Inflammatory Activity” (Frontiers in Immunology, 2021)
